# From patent US20260258003A1, “SLACK-ACTIVATING COMPOUNDS AND THEIR MEDICAL USE” (Johann Wolfgang Goethe-Universität Frankfurt am Main, priority 2023, published 2026)
# How the values were obtained:
# human Slack = molecular target: T1, human Slack (Homo sapiens, UniProt Q5JUK3); assay: FluxOR potassium ion channel assay in HEK-Slack cells; type: cell-based; conditions: Na+ free buffer with 2 mM Ca2+, 2 mM Mg2+, 0.03% DMSO, mean with 95% confidence interval; for EC50: read-out: FluxOR assay EC50; for Emax: read-out: FluxOR assay EMAX (% relative to Loxapine)
# T1 construct: host or cells: HEK293
# T1 sequence (Q5JUK3 1-1230): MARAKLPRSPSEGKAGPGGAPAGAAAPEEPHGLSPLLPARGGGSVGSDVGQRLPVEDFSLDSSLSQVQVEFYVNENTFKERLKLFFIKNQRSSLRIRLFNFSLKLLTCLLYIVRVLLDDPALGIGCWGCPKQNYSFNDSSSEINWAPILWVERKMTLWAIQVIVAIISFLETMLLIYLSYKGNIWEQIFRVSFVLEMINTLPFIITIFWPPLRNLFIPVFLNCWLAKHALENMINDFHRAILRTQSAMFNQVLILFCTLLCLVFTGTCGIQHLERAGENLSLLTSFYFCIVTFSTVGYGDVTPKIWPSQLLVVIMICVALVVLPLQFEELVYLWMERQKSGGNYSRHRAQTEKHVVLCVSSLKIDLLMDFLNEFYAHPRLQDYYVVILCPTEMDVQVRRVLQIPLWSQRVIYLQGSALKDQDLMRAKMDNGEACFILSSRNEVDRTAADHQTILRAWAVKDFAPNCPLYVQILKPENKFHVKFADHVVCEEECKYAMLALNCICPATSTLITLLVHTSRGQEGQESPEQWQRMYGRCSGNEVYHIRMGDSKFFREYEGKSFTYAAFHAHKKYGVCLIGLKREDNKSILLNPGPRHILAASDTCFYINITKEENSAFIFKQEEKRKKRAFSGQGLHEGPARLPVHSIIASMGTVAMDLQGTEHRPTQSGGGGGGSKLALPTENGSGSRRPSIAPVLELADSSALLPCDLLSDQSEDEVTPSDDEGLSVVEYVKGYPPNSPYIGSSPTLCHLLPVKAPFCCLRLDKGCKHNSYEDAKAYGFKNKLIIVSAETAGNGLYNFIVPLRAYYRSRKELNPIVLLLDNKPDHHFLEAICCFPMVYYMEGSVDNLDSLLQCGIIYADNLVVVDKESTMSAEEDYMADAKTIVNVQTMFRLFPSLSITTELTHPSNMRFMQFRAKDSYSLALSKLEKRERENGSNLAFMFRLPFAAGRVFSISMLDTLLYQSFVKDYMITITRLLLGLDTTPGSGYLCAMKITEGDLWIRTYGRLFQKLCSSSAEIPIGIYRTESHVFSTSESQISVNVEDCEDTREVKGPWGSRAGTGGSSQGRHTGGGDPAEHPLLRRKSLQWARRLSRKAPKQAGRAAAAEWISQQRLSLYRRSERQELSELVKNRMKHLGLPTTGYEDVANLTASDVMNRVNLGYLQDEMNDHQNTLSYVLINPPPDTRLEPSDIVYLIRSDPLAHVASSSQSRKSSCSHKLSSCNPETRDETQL
# Description: For that purpose, cultured HEK293 cells stably expressing human Slack (herein referred to as HEK-Slack cells) were incubated with compounds in a Na^+ free buffer to prevent compound-independent Slack activation by monovalent cations^7,19.
# In detail, in these experiments, the Slack-activating efficacy and potency of the novel compounds was determined using a commercial FluxOR™ Potassium Ion Channel Assay (Invitrogen). HEK293 cells stably expressing human Slack (herein referred to as HEK-Slack cells) were plated at a density of 50,000 cells per well of a poly-D-lysine coated (75 μg/mL, Sigma Aldrich) 96-well, black-walled microplate with clear bottom (Greiner Bio-One) in DMEM containing 10% FBS and 1% penicillin/streptomycin 24 hours prior to assaying.
# On the experiment day, cells were loaded with FluxOR™ dye according to the manufacturer's protocol. A Na^+-free assay buffer containing 140 mM choline chloride, 5 mM KCl, 2 mM CaCl2), 2 mM MgSO4, 10 mM HEPES, 5.55 mM glucose, adjusted to pH 7.4 with KOH, was used. To reduce background fluorescence all assay components were complemented by 10% BackDrop™ Background Suppressor (Invitrogen). […]
# After washing steps, cells were incubated with compounds for 30 min at 37° C. All compounds were prepared as a 33.3 mM DMSO stock and diluted at the experimental day to a final concentration of 100, 50, 25, 12.5, 6.25, and 3.125 μM in assay buffer containing […] DMSO. […] After stimulation with Tl2SO4 solution, the fluorescence was measured over 100 s (excitation 485 nm, emission 525 nm) using an Infinite M200 Microplate Reader (Tecan). Assays run in triplicate and the ratio to baseline fluorescence was calculated for all time points. Dose-response curves comprising six concentrations were performed in triplets using fluorescence/fluorescenceBaseline ratios at the 100th second.
# [1] = system: chloroquine-induced scratching behavior of mice; assay: Chloroquine-induced itch model, topical application of creme; type: in vivo; conditions: 5% in hydrophilic creme (Basiscreme DAC), topical 30 min prior to s.c. chloroquine
# Description: Animals: Experiments were performed in 8-16 week-old C57BL/6N mice (Charles River, Sulzfeld, Germany) of either sex. The animals were housed under a 12 h light/dark cycle with access to food and water ad libitum. All experiments adhered to the Animal Research: Reporting on In Vivo Experiments (ARRIVE) guidelines and were approved by and conducted in accordance with the regulations of the local Animal Welfare authorities (Regierungspräsidium Darmstadt, Germany; approval number V54-19c20/15-FR/2011). All behavioral studies were conducted during the light cycle of the day at room temperature (20-24° C.) by an observer blinded for the treatment of the animals.
# Drug formulation: A creme formulation of Compound 6 and Compound 21 was prepared by mixing a hydrophilic creme (Basiscreme DAC) with 5% of each Slack activator.
# Behavioral assessment: Three to four days before the day of the experiment, the fur on the dorsolateral aspect of the neck was shaved under brief isoflurane anesthesia. On the testing day, Compound 6 creme, Compound 21 creme, or creme vehicle were applied topically on the shaved region of the neck under brief isoflurane anesthesia and the mice were habituated to a Plexiglas cylinder (30 cm in diameter) for 30 min immediately thereafter. […] The number of scratching bouts directed towards the nape of the neck was assessed over 30 min by videotaping.
# [2] = system: heart rate and breath rate of mice; assay: Pulse oximetry on conscious, freely moving mice; type: in vivo; conditions: 10 mg/kg i.p., observation period of 30 min
# Description: Finally, potential side effects of Compound 6 were assessed by measuring cardiovascular functions by pulse oximetry.
compound,measurement,setting,value
"O=c1nc(CN2CCN(C3=Nc4ccccc4Oc4ccc(C(F)(F)F)cc43)CC2)[nH][nH]1 [Compound 11, 5-((4-(2-(Trifluoromethyl)dibenzo[b,f][1,4]oxazepin-11-yl)piperazin-1-yl)methyl)-1,2-dihydro-3H-1,2,4-triazol-3-one]",EC50,human Slack,10.7 µM
same,Emax,human Slack,199%
"O=c1nc(CN2CCN(C3=Nc4cc(F)ccc4Oc4ccc(C(F)(F)F)cc43)CC2)[nH][nH]1 [Compound 18, 5-((4-(8-Fluoro-2-(trifluoromethyl)dibenzo[b,f][1,4]oxazepin-11-yl)piperazin-1-yl)methyl)-1,2-dihydro-3H-1,2,4-triazol-3-one]",EC50,human Slack,11.2 µM
same,Emax,human Slack,127%
"O=c1nc(CN2CCN(C3=Nc4cc(F)ccc4Oc4ccc(Cl)cc43)CC2)[nH][nH]1 [Compound 19, 5-((4-(2-Chloro-8-fluorodibenzo[b,f][1,4]oxazepin-11-yl)piperazin-1-yl)methyl)-1,2-dihydro-3H-1,2,4-triazol-3-one]",EC50,human Slack,21.1 µM
same,Emax,human Slack,117%
"O=c1nc(CN2CCCN(C3=Nc4ccccc4Oc4ccc(C(F)(F)F)cc43)CC2)[nH][nH]1 [Compound 20, 5-((4-(2-(Trifluoromethyl)dibenzo[b,f][1,4]oxazepin-11-yl)-1,4-diazepan-1-yl)methyl)-1,2-dihydro-3H-1,2,4-triazol-3-one]",EC50,human Slack,26.2 µM
same,Emax,human Slack,129%
"OCCN1CCN(C2=Nc3cc(F)ccc3Oc3ccc(C(F)(F)F)cc32)CC1 [Compound 21, 2-(4-(8-Fluoro-2-(trifluoromethyl)dibenzo[b,f][1,4]oxazepin-11-yl)piperazin-1-yl) ethan-1-ol]",chloroquine-induced scratching behavior after topical application,[1],significantly ameliorated scratching behavior
same,EC50,human Slack,10.5 µM
same,Emax,human Slack,264%
"CN1CC[C@]23c4c5ccc(O)c4O[C@H]2[C@@H](O)C=C[C@H]3[C@H]1C5 [morphine, reference compound]",breath rate,[2],significantly reduced
same,heart rate,[2],significantly reduced
